Reference: PubChem BioAssay (NCI)
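Five compound concentrations were applied to cells in 96-well plates for 48 hours; endpoints were derived by simple linear interpolation of the resulting dose-response curve. Abbreviation: GI50, concentration required for 50% inhibition of growth. TGI marks complete inhibition of growth.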 Where a SMILES comes first, the peptide text is derived from it. Bridges are numbered along the chain shown (N, C = ends). Roman numbers before positions name the chains, in order. [ ]: non-standard residue; d: D form. The star is where a group is joined. Heptadecanoyl = CCCCCCCCCCCCCCCCC(=O)*; Phg = N[CH](C(=O)O)c1ccccc1

Columns and labels:
Experiment in all cases: inhibition of tumour cell growth, NCI panel, 48 h
HS 578T breast = test system: HS 578T breast
TK-10 renal = test system: TK-10 renal
OVCAR-8 ovarian = test system: OVCAR-8 ovarian
HT29 colon = test system: HT29 colon
SK-MEL-5 melanoma = test system: SK-MEL-5 melanoma
SF-539 CNS = test system: SF-539 CNS
OVCAR-5 ovarian = test system: OVCAR-5 ovarian
A498 renal = test system: A498 renal
OVCAR-3 ovarian = test system: OVCAR-3 ovarian
RXF 393 renal = test system: RXF 393 renal
NCI-H23 lung = test system: NCI-H23 lung
SW-620 colon = test system: SW-620 colon
SK-MEL-2 melanoma = test system: SK-MEL-2 melanoma
COLO 205 colon = test system: COLO 205 colon
NCI/ADR-RES ovarian = test system: NCI/ADR-RES ovarian
EKVX NSCLC = test system: EKVX NSCLC
HL-60(TB) leukemia = test system: HL-60(TB) leukemia
BT-549 breast = test system: BT-549 breast
A549 NSCLC = test system: A549 NSCLC
NCI-H460 lung = test system: NCI-H460 lung
SK-MEL-28 melanoma = test system: SK-MEL-28 melanoma
SNB-75 CNS = test system: SNB-75 CNS
HOP-92 NSCLC = test system: HOP-92 NSCLC
MDA-MB-231 breast = test system: MDA-MB-231 breast
M14 melanoma = test system: M14 melanoma
RPMI-8226 leukemia = test system: RPMI-8226 leukemia
HOP-62 NSCLC = test system: HOP-62 NSCLC
SF-268 CNS = test system: SF-268 CNS
UACC-257 melanoma = test system: UACC-257 melanoma
OVCAR-4 ovarian = test system: OVCAR-4 ovarian
NCI-H226 lung = test system: NCI-H226 lung
SK-OV-3 ovarian = test system: SK-OV-3 ovarian
SNB-19 CNS = test system: SNB-19 CNS
MDA-MB-435 = test system: MDA-MB-435
IGROV1 ovarian = test system: IGROV1 ovarian
SN12C renal = test system: SN12C renal
HCT-116 colon = test system: HCT-116 colon
MOLT-4 leukemia = test system: MOLT-4 leukemia
SF-295 CNS = test system: SF-295 CNS
MCF7 breast = test system: MCF7 breast
UO-31 renal = test system: UO-31 renal
K-562 leukemia = test system: K-562 leukemia
NCI-H522 lung = test system: NCI-H522 lung
DU-145 prostate = test system: DU-145 prostate
CCRF-CEM leukemia = test system: CCRF-CEM leukemia
CAKI-1 renal = test system: CAKI-1 renal
T-47D breast = test system: T-47D breast
HCC-2998 colon = test system: HCC-2998 colon

CCCCCCCCCCCCCCCCC(=O)N1CCCC1C(=O)NCC(=O)NC(C(=O)N1CCCC1C(=O)NC(CO)C(=O)NC(Cc1ccc(O)cc1)C(=O)NC(CCCCNC(=O)C1CCCN1C(=O)C(CCCCN)NC(=O)C(CCCCN)NC(=O)C(CCCCN)NC(=O)C(CCCNC(=N)N)NC(=O)C(CCCCN)NC(=O)C(N)C(C)C)C(=O)NC(CC(C)C)C(=O)NC(CCCNC(=N)N)C(=O)N1CCCC1C(=O)NCC(N)=O)c1ccccc1 (stereo unspecified) (I: Heptadecanoyl-PG[Phg]PSYKLRPG-NH2 / II: H-VKRKKKP; amide I:7-II:C; configuration not given here)
GI50 (HS 578T breast): > 100 µM
TGI (HS 578T breast): > 100 µM
GI50 (TK-10 renal): 26.5 µM
TGI (TK-10 renal): 66.6 µM
GI50 (OVCAR-8 ovarian): 28.2 µM
TGI (OVCAR-8 ovarian): 84.6 µM
GI50 (HT29 colon): 29.6 µM
TGI (HT29 colon): > 100 µM
GI50 (SK-MEL-5 melanoma): 31.3 µM
TGI (SK-MEL-5 melanoma): > 100 µM
GI50 (SF-539 CNS): 34.4 µM
TGI (SF-539 CNS): > 100 µM
GI50 (OVCAR-5 ovarian): 34.3 µM
TGI (OVCAR-5 ovarian): > 100 µM
GI50 (A498 renal): 76.3 µM
TGI (A498 renal): > 100 µM
GI50 (OVCAR-3 ovarian): 27 µM
TGI (OVCAR-3 ovarian): 71.2 µM
GI50 (RXF 393 renal): 36.8 µM
TGI (RXF 393 renal): > 100 µM
GI50 (NCI-H23 lung): 31.5 µM
TGI (NCI-H23 lung): > 100 µM
GI50 (SW-620 colon): 40.5 µM
TGI (SW-620 colon): > 100 µM
GI50 (SK-MEL-2 melanoma): 50.3 µM
TGI (SK-MEL-2 melanoma): > 100 µM
GI50 (COLO 205 colon): 4.75 µM
TGI (COLO 205 colon): 18.4 µM
GI50 (NCI/ADR-RES ovarian): 26.2 µM
TGI (NCI/ADR-RES ovarian): 84 µM
GI50 (EKVX NSCLC): 27.7 µM
TGI (EKVX NSCLC): 84.4 µM
GI50 (HL-60(TB) leukemia): 21.3 µM
TGI (HL-60(TB) leukemia): > 100 µM
GI50 (BT-549 breast): 36.5 µM
TGI (BT-549 breast): 89.3 µM
GI50 (A549 NSCLC): 23.9 µM
TGI (A549 NSCLC): 53.3 µM
GI50 (NCI-H460 lung): 23.2 µM
TGI (NCI-H460 lung): > 100 µM
GI50 (SK-MEL-28 melanoma): 19.5 µM
TGI (SK-MEL-28 melanoma): > 100 µM
GI50 (SNB-75 CNS): 54.2 µM
TGI (SNB-75 CNS): > 100 µM
GI50 (HOP-92 NSCLC): 30.4 µM
TGI (HOP-92 NSCLC): 83 µM
GI50 (MDA-MB-231 breast): 17.7 µM
TGI (MDA-MB-231 breast): 36.1 µM
GI50 (M14 melanoma): 25.3 µM
TGI (M14 melanoma): 99.7 µM
GI50 (RPMI-8226 leukemia): 13.5 µM
TGI (RPMI-8226 leukemia): 35.3 µM
GI50 (HOP-62 NSCLC): 32.3 µM
TGI (HOP-62 NSCLC): > 100 µM
GI50 (SF-268 CNS): 15 µM
TGI (SF-268 CNS): > 100 µM
GI50 (UACC-257 melanoma): 12.2 µM
TGI (UACC-257 melanoma): 62.9 µM
GI50 (OVCAR-4 ovarian): 46.9 µM
TGI (OVCAR-4 ovarian): > 100 µM
GI50 (NCI-H226 lung): 22.1 µM
TGI (NCI-H226 lung): 49.3 µM
GI50 (SK-OV-3 ovarian): 23.1 µM
TGI (SK-OV-3 ovarian): 51.4 µM
GI50 (SNB-19 CNS): 31.2 µM
TGI (SNB-19 CNS): 84.1 µM
GI50 (MDA-MB-435): 18.9 µM
TGI (MDA-MB-435): 83.9 µM
GI50 (IGROV1 ovarian): 24.8 µM
TGI (IGROV1 ovarian): 75.7 µM
GI50 (SN12C renal): 12 µM
TGI (SN12C renal): 27.7 µM
GI50 (HCT-116 colon): 13 µM
TGI (HCT-116 colon): 43.8 µM
GI50 (MOLT-4 leukemia): 16.3 µM
TGI (MOLT-4 leukemia): 44.8 µM
GI50 (SF-295 CNS): 25 µM
TGI (SF-295 CNS): 80.1 µM
GI50 (MCF7 breast): 23.6 µM
TGI (MCF7 breast): > 100 µM
GI50 (UO-31 renal): 32.4 µM
TGI (UO-31 renal): > 100 µM
GI50 (K-562 leukemia): 10.2 µM
TGI (K-562 leukemia): 86.8 µM
GI50 (NCI-H522 lung): 25.5 µM
TGI (NCI-H522 lung): 85.9 µM
GI50 (DU-145 prostate): 24.6 µM
TGI (DU-145 prostate): 61.5 µM
GI50 (CCRF-CEM leukemia): 12 µM
TGI (CCRF-CEM leukemia): 31.5 µM
GI50 (CAKI-1 renal): 22.9 µM
TGI (CAKI-1 renal): 47.7 µM
GI50 (T-47D breast): 5.38 µM
TGI (T-47D breast): 70.7 µM
GI50 (HCC-2998 colon): 4.36 µM
TGI (HCC-2998 colon): 29.9 µM
